Article PMC5564600 (Oncotarget, 2017)

Legend:
Assay in all cases: biochemical
Format in all cases: binding
panel of 442 kinases [1] = biological target: T1, panel of 442 kinases (Homo sapiens, UniProt Q09013); settings: DMPK; for remaining activity at 1 µM: read-out: % of control at 1 µM
T1 construct: purchased Ambit Biosciences (scanMAXX KINOMEscan)
T1 sequence (Q09013 1-629): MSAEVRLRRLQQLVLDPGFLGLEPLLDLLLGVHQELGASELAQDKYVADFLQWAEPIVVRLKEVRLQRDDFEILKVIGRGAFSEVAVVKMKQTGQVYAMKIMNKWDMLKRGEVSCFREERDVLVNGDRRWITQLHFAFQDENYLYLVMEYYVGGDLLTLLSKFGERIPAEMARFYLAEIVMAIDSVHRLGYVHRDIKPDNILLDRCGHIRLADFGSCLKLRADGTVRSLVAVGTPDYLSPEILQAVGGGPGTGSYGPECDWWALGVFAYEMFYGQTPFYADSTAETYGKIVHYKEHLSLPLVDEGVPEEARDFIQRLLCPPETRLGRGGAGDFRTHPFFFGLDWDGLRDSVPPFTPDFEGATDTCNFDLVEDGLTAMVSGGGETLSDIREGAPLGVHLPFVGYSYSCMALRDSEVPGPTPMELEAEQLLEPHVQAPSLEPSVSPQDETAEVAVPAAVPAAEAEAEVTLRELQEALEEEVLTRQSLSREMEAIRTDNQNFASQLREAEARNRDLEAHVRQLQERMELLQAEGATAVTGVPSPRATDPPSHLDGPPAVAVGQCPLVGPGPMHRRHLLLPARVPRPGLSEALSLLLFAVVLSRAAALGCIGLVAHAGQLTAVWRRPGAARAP

panel of 442 kinases [2] = biological target: T2, panel of 442 kinases (Homo sapiens, UniProt P48730); settings: CSNK1D; for remaining activity at 1 µM: read-out: % of control at 1 µM
T2 construct: purchased Ambit Biosciences (scanMAXX KINOMEscan)

panel of 442 kinases [3] = biological target: T3, panel of 442 kinases (Homo sapiens, UniProt P00533, DEL746-750); settings: EGFR(E746-A750del); for remaining activity at 1 µM: read-out: % of control at 1 µM
T3 construct: purchased Ambit Biosciences (scanMAXX KINOMEscan)

panel of 442 kinases [4] = biological target: T4, panel of 442 kinases (Homo sapiens, UniProt Q99683); settings: ASK1; for remaining activity at 1 µM: read-out: % of control at 1 µM
T4 construct: purchased Ambit Biosciences (scanMAXX KINOMEscan)
T4 sequence (Q99683 1-1374): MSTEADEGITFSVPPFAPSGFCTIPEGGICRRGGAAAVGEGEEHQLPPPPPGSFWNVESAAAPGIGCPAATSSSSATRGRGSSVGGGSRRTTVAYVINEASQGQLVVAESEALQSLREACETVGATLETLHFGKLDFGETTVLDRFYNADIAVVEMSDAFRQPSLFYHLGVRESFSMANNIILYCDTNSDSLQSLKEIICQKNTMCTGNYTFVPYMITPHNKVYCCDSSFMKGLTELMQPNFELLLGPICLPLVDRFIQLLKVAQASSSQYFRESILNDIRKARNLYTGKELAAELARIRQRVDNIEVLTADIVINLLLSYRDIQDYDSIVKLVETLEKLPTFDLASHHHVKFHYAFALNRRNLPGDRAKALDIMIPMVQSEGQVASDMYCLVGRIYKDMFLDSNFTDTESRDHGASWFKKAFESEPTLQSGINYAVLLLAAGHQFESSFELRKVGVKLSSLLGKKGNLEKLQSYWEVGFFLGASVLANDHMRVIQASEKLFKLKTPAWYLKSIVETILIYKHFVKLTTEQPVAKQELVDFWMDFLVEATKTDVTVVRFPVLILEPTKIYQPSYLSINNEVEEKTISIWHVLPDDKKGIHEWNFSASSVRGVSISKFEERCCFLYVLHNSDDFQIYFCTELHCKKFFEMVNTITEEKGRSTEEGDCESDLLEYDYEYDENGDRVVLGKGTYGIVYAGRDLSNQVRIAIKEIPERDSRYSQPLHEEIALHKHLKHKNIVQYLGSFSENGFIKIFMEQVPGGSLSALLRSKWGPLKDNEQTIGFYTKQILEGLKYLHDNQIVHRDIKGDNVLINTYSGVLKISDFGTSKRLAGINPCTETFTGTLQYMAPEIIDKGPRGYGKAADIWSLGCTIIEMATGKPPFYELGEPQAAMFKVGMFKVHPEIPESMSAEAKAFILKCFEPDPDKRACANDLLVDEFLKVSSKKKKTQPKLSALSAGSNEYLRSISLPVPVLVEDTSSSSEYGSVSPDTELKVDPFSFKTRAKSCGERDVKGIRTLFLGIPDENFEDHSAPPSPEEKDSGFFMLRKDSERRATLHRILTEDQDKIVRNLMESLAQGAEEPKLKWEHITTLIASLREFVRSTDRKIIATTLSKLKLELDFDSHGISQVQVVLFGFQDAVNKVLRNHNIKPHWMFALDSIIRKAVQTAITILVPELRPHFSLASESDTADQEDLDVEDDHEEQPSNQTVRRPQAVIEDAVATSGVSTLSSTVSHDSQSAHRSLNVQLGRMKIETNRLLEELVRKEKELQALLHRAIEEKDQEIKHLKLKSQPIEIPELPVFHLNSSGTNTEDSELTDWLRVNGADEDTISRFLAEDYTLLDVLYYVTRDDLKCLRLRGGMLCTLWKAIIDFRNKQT

panel of 442 kinases [5] = biological target: T5, panel of 442 kinases (Homo sapiens, UniProt P04629); settings: kinase TRKA; for remaining activity at 1 µM: read-out: TRKA (% of control at 1 µM)
T5 construct: purchased Ambit Biosciences (scanMAXX KINOMEscan)

[6] = 10 µM, read-out: % of control at 10 µM

T5 sequence (P04629 33-796): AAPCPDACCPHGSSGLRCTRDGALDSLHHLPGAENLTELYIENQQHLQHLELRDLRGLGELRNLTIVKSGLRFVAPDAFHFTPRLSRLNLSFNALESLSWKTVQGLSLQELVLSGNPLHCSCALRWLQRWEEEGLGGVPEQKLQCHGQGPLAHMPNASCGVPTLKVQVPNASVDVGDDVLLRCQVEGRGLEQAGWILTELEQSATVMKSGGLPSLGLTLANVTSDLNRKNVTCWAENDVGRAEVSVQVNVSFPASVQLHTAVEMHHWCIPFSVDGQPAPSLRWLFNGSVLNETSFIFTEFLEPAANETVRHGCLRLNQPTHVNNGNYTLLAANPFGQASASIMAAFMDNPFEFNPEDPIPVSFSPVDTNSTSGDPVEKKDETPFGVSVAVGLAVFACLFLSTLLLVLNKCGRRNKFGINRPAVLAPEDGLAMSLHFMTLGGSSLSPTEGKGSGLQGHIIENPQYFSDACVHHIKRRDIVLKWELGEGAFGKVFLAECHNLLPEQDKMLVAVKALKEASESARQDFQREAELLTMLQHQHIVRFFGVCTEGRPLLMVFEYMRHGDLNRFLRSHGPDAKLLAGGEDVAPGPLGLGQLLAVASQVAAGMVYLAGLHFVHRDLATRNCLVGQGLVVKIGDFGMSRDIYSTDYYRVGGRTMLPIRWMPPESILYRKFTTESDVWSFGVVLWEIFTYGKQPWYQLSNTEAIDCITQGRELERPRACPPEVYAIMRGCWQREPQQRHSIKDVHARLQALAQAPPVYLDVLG
T2 sequence (P48730 whole entry): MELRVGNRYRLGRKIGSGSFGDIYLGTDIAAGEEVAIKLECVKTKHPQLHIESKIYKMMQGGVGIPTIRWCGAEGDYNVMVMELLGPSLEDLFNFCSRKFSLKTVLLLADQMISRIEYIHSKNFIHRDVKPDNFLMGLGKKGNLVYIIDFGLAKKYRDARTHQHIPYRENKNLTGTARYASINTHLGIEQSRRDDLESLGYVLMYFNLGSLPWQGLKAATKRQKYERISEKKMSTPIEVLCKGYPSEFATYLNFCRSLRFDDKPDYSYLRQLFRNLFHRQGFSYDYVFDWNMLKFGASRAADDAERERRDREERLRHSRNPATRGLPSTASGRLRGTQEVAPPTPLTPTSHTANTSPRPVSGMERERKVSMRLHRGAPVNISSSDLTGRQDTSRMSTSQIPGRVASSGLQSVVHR
T3 sequence (P00533 with tags, fused parts or gaps DEL746-750): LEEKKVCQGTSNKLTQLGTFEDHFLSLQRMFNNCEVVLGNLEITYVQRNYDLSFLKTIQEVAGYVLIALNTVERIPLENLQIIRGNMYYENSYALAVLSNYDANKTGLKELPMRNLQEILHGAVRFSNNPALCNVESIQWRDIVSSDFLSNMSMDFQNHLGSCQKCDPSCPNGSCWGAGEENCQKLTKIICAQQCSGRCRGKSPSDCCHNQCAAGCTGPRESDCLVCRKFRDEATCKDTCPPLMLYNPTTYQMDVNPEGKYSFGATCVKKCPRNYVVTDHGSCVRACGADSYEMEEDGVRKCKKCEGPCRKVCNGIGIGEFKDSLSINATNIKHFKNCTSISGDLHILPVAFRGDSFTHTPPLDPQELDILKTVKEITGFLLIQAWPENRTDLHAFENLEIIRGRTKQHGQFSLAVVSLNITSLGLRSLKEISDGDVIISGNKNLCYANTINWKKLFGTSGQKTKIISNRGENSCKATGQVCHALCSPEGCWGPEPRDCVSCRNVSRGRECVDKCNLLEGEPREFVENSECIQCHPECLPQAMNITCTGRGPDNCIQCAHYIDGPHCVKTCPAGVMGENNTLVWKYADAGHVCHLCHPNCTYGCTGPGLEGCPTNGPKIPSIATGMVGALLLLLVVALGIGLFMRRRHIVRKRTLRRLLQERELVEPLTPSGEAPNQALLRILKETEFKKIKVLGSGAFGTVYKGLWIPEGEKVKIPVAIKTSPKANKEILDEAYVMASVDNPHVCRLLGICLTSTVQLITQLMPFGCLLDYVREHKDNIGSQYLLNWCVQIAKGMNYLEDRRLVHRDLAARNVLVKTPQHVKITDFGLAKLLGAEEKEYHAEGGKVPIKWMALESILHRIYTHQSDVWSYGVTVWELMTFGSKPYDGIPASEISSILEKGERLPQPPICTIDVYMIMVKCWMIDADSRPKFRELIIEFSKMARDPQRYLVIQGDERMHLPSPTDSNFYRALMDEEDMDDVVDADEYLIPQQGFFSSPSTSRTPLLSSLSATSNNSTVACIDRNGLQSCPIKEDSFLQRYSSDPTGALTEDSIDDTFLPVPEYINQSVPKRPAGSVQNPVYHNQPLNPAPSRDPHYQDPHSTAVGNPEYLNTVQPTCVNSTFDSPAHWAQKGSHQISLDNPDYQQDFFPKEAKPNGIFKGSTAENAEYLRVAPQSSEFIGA

Structure (SMILES) | remaining activity at 1 µM (panel of 442 kinases [1]) [%] | remaining activity at 10 µM (panel of 442 kinases [1]; [6]) [%] | remaining activity at 1 µM (panel of 442 kinases [2]) [%] | remaining activity at 10 µM (panel of 442 kinases [2]; [6]) [%] | remaining activity at 1 µM (panel of 442 kinases [3]) [%] | remaining activity at 10 µM (panel of 442 kinases [3]; [6]) [%] | remaining activity at 1 µM (panel of 442 kinases [4]) [%] | remaining activity at 10 µM (panel of 442 kinases [4]; [6]) [%] | remaining activity at 1 µM (panel of 442 kinases [5]) [%] | remaining activity at 10 µM (panel of 442 kinases [5]; 10 µM, read-out: TRKA (% of control at 10 µM)) [%]
Nc1cc(C(F)(F)F)c(-c2cc(N3CCOCC3)nc(N3CCOCC3)n2)cn1 [Buparlisib] | 79 | 83 | 92 | 75 | 100 | 100 | 87 | 94 | 97 | 80
Cn1c(=O)n(-c2ccc(C(C)(C)C#N)cc2)c2c3cc(-c4cnc5ccccc5c4)ccc3ncc21 [Dactolisib, 2-methyl-2-[4-(3-methyl-2-oxo-8-quinolin-3-yl-2,3-dihydroimidazo[4,5-c]quinolin-1-yl)-phenyl] propionitrile] | 88 |  | 76 |  | 100 |  | 100 |  |  | 
COc1ncc(-c2ccc3nccc(-c4ccnnc4)c3c2)cc1NS(=O)(=O)c1ccc(F)cc1F [Omipalisib] | 100 |  | 100 |  | 97 |  | 100 |  | 80 | 
FC(F)c1nc2ccccc2n1-c1nc(N2CCOCC2)nc(N2CCOCC2)n1 [ZSTK474, 2-(difluoromethyl)-1-[4,6-di(4-morpholinyl)-1,3,5-triazin-2-yl]-1H-benzimidazole] | 100 |  | 67 |  | 94 |  | 100 |  | 100 | 
